Measured values as given in publication PMC5941726, “Evaluating Hepatobiliary Transport with ^18F-Labeled Bile Acids: The Effect of Radiolabel Position and Bile Acid Structure on Radiosynthesis and In Vitro and In Vivo Performance” (Contrast Media & Molecular Imaging, 2018).
Values joined by “and” are separate entries in the source; they are usually repeats but may differ in a detail not shown here. Identical values can stand only once. Like-named read-outs stand apart in the source and are kept apart here.

Columns and labels:
[1] = Stability of the tracer in mouse serum; format: in vitro ADME
Method: (§1) The logD-value, stability (in formulation for use and mouse serum), and identity of the tracer were assessed as described earlier. Radiochemical purity and percentage ^18F-labeling of precursor were determined by radio-TLC (silica gel TLC; with 10% MeOH in CH2Cl2 and 4 : 1 AcN : H2O, resp.).

[2] = tested on: wild-type FVB-mice; assay: Dynamic PET/CT imaging of hepatobiliary transport in wild-type FVB-mice; format: in vivo, mouse; settings: for Time-to-peak liver / AUC GBI (gallbladder and intestines) / AUC liver (time-activity curve) / Max% ID GBI (gallbladder and intestines) / Max% ID liver: 9 MBq i.v., 1 hour PET-scan; for AUC GBI (gallbladder and intestines) / AUC liver (time-activity curve) / Max% ID GBI (gallbladder and intestines) / Max% ID liver: normalized for 20 g mouse
Method: The in vivo transport characteristics of the ^18F labeled bile acids were evaluated in wild-type FVB-mice (female, 5 w). The tracer described earlier, 3β-[^18F]FCA, was also included as a reference standard. Imaging was performed with a PET/CT (FLEX Triumph II small animal PET/CT-scanner; axial field of view: 7.5 cm; 1.3 mm spatial resolution; TriFoil Imaging). For each tracer, three animals were used. The animals were housed and handled in accordance with the European Ethics Committee guidelines and the experiments were approved by the Animal Experimental Ethical Committee of Ghent University (ECD 15/69).
Food and water were provided ad libitum, but the animals were fasted overnight before a PET/CT-scan. They were anesthetized with 1.5 v : v% isoflurane in O2 and placed on a heated bed. To allow injection of the tracer, a polyethylene intravenous line was inserted in the lateral tail vein and fixed. After the animals were transferred to the scanner animal bed, a 1 hour PET-scan was started and 9 MBq tracer was injected directly after starting the scan. Following this PET-scan, 9 MBq [^18F]FDG was injected and twenty minutes later, a second PET-scan with a 20-minute acquisition time was started.
All PET-scans were obtained in list-mode and were iteratively reconstructed (50 iterations). The 1-hour scan was reconstructed in the following frames: 8 × 15 s; 16 × 30 s; 10 × 60 s; 20 × 120 s. For presentation purposes, Maximum Intensity Projection PET/CT images were generated in Amide software. The data were analyzed using Pmod software v3.405 (PMOD Technologies): Regions Of Interest (ROIs) were drawn manually over the liver, gallbladder, and intestines. On the static [^18F]FDG scan, the left ventricle was delineated and this ROI was pasted on the dynamic scan to obtain an image-derived arterial blood concentration. The uptake of radioactivity in liver, gallbladder, and intestines was expressed as a percentage of the injected dose (% ID) and normalized for the weight of a 20 g mouse. The % ID in these organs was monitored in function of time to obtain time-activity curves (TACs). Biliary clearance of the tracers was determined with equation 2 from Ghibellini et al. [14](2) Biliary clearance=cumulative amount of tracer in gallbladder&intestines/AUC blood concentration0→60 min.
The Area Under the Curve (AUC), % ID, and time-to-peak values of the TACs were determined in GraphPad Prism v3.00 Software. The obtained parameters of the different ^18F labeled bile acids were compared to 3β-[^18F]FCA-values in SPSS Statistics 23 Software. Differences between two groups were analyzed with the nonparametric Mann–Whitney U test. A p value ≤ 0.05 was considered significant.

[3] = LogD determination of the tracers; format: physicochemical
Method: as §1

[4] = Stability of the tracer in formulation for use; format: physicochemical
Method: as §1

[5] = molecular target: T1, BSEP (Homo sapiens, UniProt O95342); assay: Inhibition of [^3H]TC uptake in BSEP membrane vesicles (efflux assay)
Method: All dosing was performed in triplicate. The plates were suspended in a 37°C water bath 1 minute before the incubation. Incubation was started by adding 10 μL of the ATP solution or buffer solution (negative control). Each well contained a final volume of 30 μL and the plates were incubated for 10 minutes at 37°C.
The contents of each well were pipetted in a glass fiber filter plate (Multiscreen HTS plates; Merck Millipore) and washed 3 times with 200 μL ice-cold buffer solution. Finally, 100 μL 0.1 M NaOH was added: lysis of the vesicles took place for 10 minutes at room temperature. An aliquot was used for liquid scintillation counting.

[6] = molecular target: T2, NTCP (Homo sapiens, UniProt Q14973); assay: Inhibition of [^3H]taurocholate uptake in CHO cells expressing NTCP (competition assay); format: cell-based; settings: for Ki: 1 μM [^3H]TC, 15 min 37°C, Cheng-Prusoff from IC50 and Km, mean ± SD n = 3
T2 construct: host or cells: Chinese Hamster Ovary (CHO) cells
T2 sequence (Q14973 1-349): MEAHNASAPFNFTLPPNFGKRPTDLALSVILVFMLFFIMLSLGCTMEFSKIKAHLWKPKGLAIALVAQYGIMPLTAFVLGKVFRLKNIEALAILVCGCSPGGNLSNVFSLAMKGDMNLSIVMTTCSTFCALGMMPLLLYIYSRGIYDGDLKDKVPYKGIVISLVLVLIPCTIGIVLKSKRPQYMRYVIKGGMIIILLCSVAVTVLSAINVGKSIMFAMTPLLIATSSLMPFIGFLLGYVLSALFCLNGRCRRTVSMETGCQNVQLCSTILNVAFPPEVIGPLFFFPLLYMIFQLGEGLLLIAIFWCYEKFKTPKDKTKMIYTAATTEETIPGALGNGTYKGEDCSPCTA
Source text: Maintenance of these cell cultures was described earlier.

[7] = molecular target: T3, OATP1B1 (Homo sapiens, UniProt Q9Y6L6)
T3 sequence (Q9Y6L6 1-691): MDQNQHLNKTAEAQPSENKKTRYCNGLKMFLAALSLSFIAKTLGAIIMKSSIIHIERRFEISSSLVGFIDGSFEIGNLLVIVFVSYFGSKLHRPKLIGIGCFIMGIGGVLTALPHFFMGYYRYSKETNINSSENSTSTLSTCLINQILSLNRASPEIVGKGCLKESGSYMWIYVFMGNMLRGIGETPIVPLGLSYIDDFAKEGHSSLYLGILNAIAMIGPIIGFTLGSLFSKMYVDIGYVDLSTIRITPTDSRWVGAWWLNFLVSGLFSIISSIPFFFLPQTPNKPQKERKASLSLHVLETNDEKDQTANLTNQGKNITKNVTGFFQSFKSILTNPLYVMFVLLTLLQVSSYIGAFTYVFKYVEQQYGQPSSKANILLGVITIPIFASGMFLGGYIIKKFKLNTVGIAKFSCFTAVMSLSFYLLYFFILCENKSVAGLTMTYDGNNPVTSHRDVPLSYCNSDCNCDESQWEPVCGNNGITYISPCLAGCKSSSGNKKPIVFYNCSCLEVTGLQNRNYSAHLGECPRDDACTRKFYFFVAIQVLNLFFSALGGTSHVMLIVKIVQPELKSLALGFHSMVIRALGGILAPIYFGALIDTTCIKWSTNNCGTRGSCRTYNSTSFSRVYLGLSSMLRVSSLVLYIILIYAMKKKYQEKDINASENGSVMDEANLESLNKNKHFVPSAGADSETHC
Method: (§2) Chinese Hamster Ovary (CHO) and Human Embryonic Kidney (HEK) cells expressing NTCP and OATP1B1, respectively (Solvo Biotechnologies), were used.
(§3) Cells were seeded in 24-well plates at 400,000 cells/well. […] All dosing solutions were formulated in the washing buffer and dosing was executed in triplicate. The incubation was stopped by placing the plates on ice and adding 1 mL ice-cold 1% BSA HBSS-solution. The supernatant was aspirated and the cells were washed twice with 2 mL ice-cold HBSS-solution. NaOH (250 μl, 0.1 M) was added to lyse the cells and the plates were shaken (15 minutes, 37°C). Aliquots of this lysate were subjected to liquid scintillation counting (TriCarb 2900 TR; Perkin Elmer) and protein determination with a BCA-assay (ThermoFisher Scientific).

[8] = molecular target: T2, NTCP; design: method as in PMID 28273180; settings: Ki calculated from IC50-values extracted from literature; cited from earlier work
[9] = molecular target: T3, OATP1B1; design: host or cells: Human Embryonic Kidney (HEK) cells; method as in PMID 28273180; settings: Ki calculated from IC50-values extracted from literature; cited from earlier work
[10] = molecular target: T1, BSEP; design: purchased Pharmtox; method as in PMID 28273180; settings: Ki calculated from IC50-values extracted from literature; cited from earlier work
[11] = molecular target: T3, OATP1B1; assay: cell-based
Method: as §2, §3

[12] = molecular target: T3, OATP1B1; assay: Inhibition of [^3H]estradiol-17β-glucuronide uptake in HEK cells expressing OATP1B1 (competition assay)
Method: as §2, §3

[13] = wild-type mice, i.v., after 1 hour
[14] = wild-type mice, cumulative amount in gallbladder & intestines / AUC blood concentration 0-60 min, n = 3
[15] = female, FVB, mouse, in vivo, iv, 9 MBq
[16] = female, FVB, mouse, in vivo, iv, 1 h

T1 sequence (O95342 whole entry, species assumed): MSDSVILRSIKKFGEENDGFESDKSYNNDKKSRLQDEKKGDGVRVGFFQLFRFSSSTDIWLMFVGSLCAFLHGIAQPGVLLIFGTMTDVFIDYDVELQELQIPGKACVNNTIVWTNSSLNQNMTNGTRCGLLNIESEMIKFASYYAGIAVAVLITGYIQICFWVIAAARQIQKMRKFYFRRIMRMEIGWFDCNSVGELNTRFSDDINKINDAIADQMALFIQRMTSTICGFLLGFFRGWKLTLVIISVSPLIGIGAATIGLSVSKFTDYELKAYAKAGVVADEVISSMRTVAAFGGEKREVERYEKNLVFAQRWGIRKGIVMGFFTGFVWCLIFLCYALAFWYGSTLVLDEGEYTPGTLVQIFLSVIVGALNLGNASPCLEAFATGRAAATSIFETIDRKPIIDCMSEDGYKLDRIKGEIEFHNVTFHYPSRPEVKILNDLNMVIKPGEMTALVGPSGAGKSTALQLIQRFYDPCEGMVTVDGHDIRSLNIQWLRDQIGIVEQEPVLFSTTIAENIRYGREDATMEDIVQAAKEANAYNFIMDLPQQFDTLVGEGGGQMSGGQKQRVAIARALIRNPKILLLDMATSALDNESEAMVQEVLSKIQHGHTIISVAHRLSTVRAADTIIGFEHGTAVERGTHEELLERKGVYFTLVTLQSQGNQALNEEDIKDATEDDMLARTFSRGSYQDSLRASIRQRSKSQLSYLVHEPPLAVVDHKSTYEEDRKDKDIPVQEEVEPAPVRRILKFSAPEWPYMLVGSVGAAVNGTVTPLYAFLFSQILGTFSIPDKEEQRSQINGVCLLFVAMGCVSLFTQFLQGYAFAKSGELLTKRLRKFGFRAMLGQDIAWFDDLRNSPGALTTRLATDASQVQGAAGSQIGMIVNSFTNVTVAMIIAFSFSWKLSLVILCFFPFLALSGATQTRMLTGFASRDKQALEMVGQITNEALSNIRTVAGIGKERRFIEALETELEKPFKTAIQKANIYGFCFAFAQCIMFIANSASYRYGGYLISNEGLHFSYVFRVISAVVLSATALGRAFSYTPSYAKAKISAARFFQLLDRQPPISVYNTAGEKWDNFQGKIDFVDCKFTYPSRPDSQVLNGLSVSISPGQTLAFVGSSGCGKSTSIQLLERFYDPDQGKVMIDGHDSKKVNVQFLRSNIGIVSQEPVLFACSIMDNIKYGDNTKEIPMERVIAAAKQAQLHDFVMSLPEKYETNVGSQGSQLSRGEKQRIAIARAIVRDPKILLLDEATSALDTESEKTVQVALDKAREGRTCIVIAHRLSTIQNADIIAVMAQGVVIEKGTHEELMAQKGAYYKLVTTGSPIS

## C[C@H](CCC(=O)O)[C@H]1CC[C@H]2[C@@H]3[C@H](O)C[C@@H]4C[C@H]([18F])CC[C@]4(C)[C@H]3C[C@H](O)[C@]12C [3α-[^18F]FCA, 3α-[^18F]fluorocholic acid]
[1]; mouse serum
  Stability in mouse serum: stable
[2]; wild-type mice, n = 3
  Time-to-peak liver: 3.33 ± 0.62 min and 3.33 ± 0.62^∗ min
  AUC GBI (gallbladder and intestines): 4184 ± 109^∗ % ID·min
  AUC liver (time-activity curve): 1065 ± 171^∗ % ID·min
  Max% ID GBI (gallbladder and intestines): 88.70 ± 2.38%
  Max% ID liver: 58.58 ± 3.19%
[2]; wild-type mice, PET
  Organ uptake after intravenous injection: exclusive hepatic uptake
[2]; [13]
  Injected activity found in gallbladder and intestines after 1 hour: approx. 80%
[2]; [14]
  Biliary clearance: 0.49 ± 0.10 mL/min
[3]; n = 3, mean ± SD, read-out: LogD
  logD: 0.92 ± 0.17
[4]; formulation for use (phosphate buffered saline)
  Stability in its formulation: stable

## C[C@H](CCC(=O)O)[C@H]1CC[C@H]2[C@@H]3[C@H](O)C[C@@H]4C[C@H](F)CC[C@]4(C)[C@H]3C[C@H](O)[C@]12C [3αFCA, 3α-fluorocholic acid]
[5]
  Ki: 199 ± 39.5 µM
[6]
  Ki: 2.53 ± 0.76 µM
[7]
  Ki: 5.22 ± 0.56 µM

## C[C@H](CCC(=O)O)[C@H]1CC[C@H]2[C@@H]3[C@H](O)C[C@@H]4C[C@@H]([18F])CC[C@]4(C)[C@H]3C[C@H](O)[C@]12C [3β-[^18F]FCA, 3β-[^18F]fluorocholic acid, reference compound]
[2]; wild-type mice, n = 3
  Time-to-peak liver: 5.33 ± 0.24 min
  AUC GBI (gallbladder and intestines): 3499 ± 340 % ID·min
  AUC liver (time-activity curve): 1785 ± 194 % ID·min
  Max% ID GBI (gallbladder and intestines): 83.44 ± 9.27%
  Max% ID liver: 63.80 ± 2.61%
[2]; wild-type mice, PET
  Organ uptake after intravenous injection: exclusive hepatic uptake
[2]; [13]
  Injected activity found in gallbladder and intestines after 1 hour: approx. 80%
[2]; [14]
  Biliary clearance: 0.46 ± 0.08 mL/min

## C[C@H](CCC(=O)O)[C@H]1CC[C@H]2[C@@H]3[C@H](O)C[C@@H]4C[C@@H]([18F])CC[C@]4(C)[C@H]3CC[C@]12C [3β-[^18F]FCDCA, 3β-[^18F]fluorochenodeoxycholic acid]
[1]
  Stability in mouse serum: stable
[2]; [15]
  Biliary clearance: 0.18 ± 0.04^∗ mL/min
[2]; [16]
  Injected activity found in gallbladder and intestines after 1 hour: 60%
[2]; mouse, in vivo, iv
  Organ uptake after intravenous injection: exclusive hepatic uptake
[3]
  logD: 1.42 ± 0.16
[4]
  Stability in its formulation: stable

## C[C@H](CCC(=O)NCC(=O)O)[C@H]1CC[C@H]2[C@@H]3[C@H](O)C[C@@H]4C[C@@H]([18F])CC[C@]4(C)[C@H]3C[C@H](O)[C@]12C [3β-[^18F]FGCA, 3β-[^18F]fluoroglycocholic acid]
[1]
  Stability in mouse serum: stable
[2]; [15]
  Biliary clearance: 0.47 ± 0.07 mL/min
[2]; [16]
  Injected activity found in gallbladder and intestines after 1 hour: approx. 80%
[2]; mouse, in vivo, iv
  Organ uptake after intravenous injection: exclusive hepatic uptake
[3]
  logD: 0.011 ± 0.037
[4]
  Stability in its formulation: stable

## C[C@H](CCC(=O)O)[C@H]1CC[C@H]2[C@@H]3[C@H](O)C[C@@H]4C[C@@H](F)CC[C@]4(C)[C@H]3C[C@H](O)[C@]12C [3βFCA]
[8]
  Ki: 6.18 ± 0.59 µM
[9]
  Ki: 9.67 ± 0.83 µM
[10]
  Ki: 216 ± 53 µM

## C[C@H](CCC(=O)O)[C@H]1CC[C@H]2[C@@H]3[C@H](O)C[C@@H]4C[C@@H](F)CC[C@]4(C)[C@H]3CC[C@]12C [3βFCDCA]
[5]
  Ki: 48.2 ± 3.94 µM
[6]
  Ki: 0.91 ± 0.02 µM
[7]
  Ki: 0.64 ± 0.07 µM

## C[C@H](CCC(=O)NCC(=O)O)[C@H]1CC[C@H]2[C@@H]3[C@H](O)C[C@@H]4C[C@@H](F)CC[C@]4(C)[C@H]3C[C@H](O)[C@]12C [3βFGCA, 3β F glycocholic acid]
[5]
  Ki: 87.4 ± 14.6 µM
[6]
  Ki: 1.09 ± 0.34 µM
[7]
  Ki: 4.24 ± 0.16 µM

## C[C@H](CCC(=O)O)[C@H]1CC[C@H]2[C@@H]3[C@H](O)C[C@@H]4C[C@H](O)CC[C@]4(C)[C@H]3C[C@@H](F)[C@]12C [12βFCA]
[5]; read-out: Ki for BSEP, BSEP membrane vesicles, 0.65 μM [^3H]TC, 10 min 37°C, Cheng-Prusoff from IC50 and Km, mean ± SD n = 3
  Ki: 367 ± 38.1 µM
[6]
  Ki: 30.1 ± 9.4 µM
[7]
  Ki: 4.56 ± 0.25 µM

## C[C@H](CCC(=O)O)[C@H]1CC[C@H]2[C@@H]3[C@H](O)C[C@@H]4C[C@H](O)CC[C@]4(C)[C@H]3C[C@H](O)[C@]12C [CA, Cholic acid]
[11]
  Ki: 42.7 ± 0.16 µM

## C[C@]12CC[C@@H]3c4ccc(O)cc4CC[C@H]3[C@@H]1CC[C@@H]2O[C@@H]1O[C@H](C(=O)O)[C@@H](O)[C@H](O)[C@H]1O [[^3H]EbG, [^3H]estradiol-17β-glucuronide]
[12]; 0–150 μM, 10 min 37°C
  Vmax of substrate uptake: 146.4 ± 5.52 pmol/min·mg protein
[12]; read-out: Km (Michaelis-Menten) of substrate uptake, 0–150 μM, 10 min 37°C
  Km: 11.7 ± 1.59 µM

## C[C@H](CCC(=O)NCCS(=O)(=O)O)[C@H]1CC[C@H]2[C@@H]3[C@H](O)C[C@@H]4C[C@H](O)CC[C@]4(C)[C@H]3C[C@H](O)[C@]12C [[^3H]TC, [^3H]taurocholate, reference compound]
[6]; 0–150 μM, 10 min 37°C
  Vmax of substrate uptake: 200.4 ± 9.77 pmol/min·mg protein
[6]; 0–150 μM, 10 min 37°C, read-out: Km (Michaelis-Menten) of substrate uptake
  Km: 15.3 ± 2.46 µM
